Source: BindingDB's records for doi:10.1021/jm00095a025 (University of Uppsala, 1992)
pEC50: −log10 of the molar value.

The compounds below were run against Muscarinic acetylcholine receptor (Cavia porcellus, UniProt Q8VH26) (assay: Muscarinic acetylcholine receptor M3 agonistic/antagonistic activity in guinea pig ileum).
Chain of Muscarinic acetylcholine receptor (Q8VH26 whole entry): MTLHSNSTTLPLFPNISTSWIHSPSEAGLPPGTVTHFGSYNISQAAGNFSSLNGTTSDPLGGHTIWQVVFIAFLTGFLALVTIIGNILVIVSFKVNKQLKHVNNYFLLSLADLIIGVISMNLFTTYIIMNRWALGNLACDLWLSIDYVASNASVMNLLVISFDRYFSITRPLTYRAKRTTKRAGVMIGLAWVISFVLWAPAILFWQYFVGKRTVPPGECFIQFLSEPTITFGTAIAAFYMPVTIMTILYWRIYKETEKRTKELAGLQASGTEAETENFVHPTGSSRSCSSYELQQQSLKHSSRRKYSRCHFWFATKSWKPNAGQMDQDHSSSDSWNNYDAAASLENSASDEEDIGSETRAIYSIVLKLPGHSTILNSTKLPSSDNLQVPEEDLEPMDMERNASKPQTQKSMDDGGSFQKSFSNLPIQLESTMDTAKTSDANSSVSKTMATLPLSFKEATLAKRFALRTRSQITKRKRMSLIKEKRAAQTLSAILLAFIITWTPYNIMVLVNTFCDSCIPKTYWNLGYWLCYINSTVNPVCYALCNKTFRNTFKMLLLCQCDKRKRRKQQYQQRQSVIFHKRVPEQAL

SMILES	pEC50
CC(C#CCN1CCCC1)N1CCCC1=O (stereo not drawn)	> 9.00
CC(C#CCN1CCCC1)N(C)C(N)=O (stereo not drawn)	> 9.00
CC(C#CCN1CCCC1)N1CCNC1=O (stereo not drawn)	> 9.00
